We go through 49 compounds from patent US11780845B2 (Relay Therapeutics, Inc., priority 2019, dated 2023).

The term IC50 denotes the concentration at which inhibition is half-maximal. Low values mean higher potency, high ones lower potency.

Test [1] has as its target FGFR2 (Homo sapiens (Human), UniProt P21802). As to the kind of experiment: Biochemical FGFR2 Caliper assay.
Test [2] deals with SNU-16. As to the kind of experiment: Cell SNU-16 assay. Type of test: cell-based.
The mark [3] stands for this setting: Homo sapiens, SNU-16, SNU-16 cells.

A value given as a limit tells only on which side of the number the result lay.

FGFR2, sequence (P21802 22-821): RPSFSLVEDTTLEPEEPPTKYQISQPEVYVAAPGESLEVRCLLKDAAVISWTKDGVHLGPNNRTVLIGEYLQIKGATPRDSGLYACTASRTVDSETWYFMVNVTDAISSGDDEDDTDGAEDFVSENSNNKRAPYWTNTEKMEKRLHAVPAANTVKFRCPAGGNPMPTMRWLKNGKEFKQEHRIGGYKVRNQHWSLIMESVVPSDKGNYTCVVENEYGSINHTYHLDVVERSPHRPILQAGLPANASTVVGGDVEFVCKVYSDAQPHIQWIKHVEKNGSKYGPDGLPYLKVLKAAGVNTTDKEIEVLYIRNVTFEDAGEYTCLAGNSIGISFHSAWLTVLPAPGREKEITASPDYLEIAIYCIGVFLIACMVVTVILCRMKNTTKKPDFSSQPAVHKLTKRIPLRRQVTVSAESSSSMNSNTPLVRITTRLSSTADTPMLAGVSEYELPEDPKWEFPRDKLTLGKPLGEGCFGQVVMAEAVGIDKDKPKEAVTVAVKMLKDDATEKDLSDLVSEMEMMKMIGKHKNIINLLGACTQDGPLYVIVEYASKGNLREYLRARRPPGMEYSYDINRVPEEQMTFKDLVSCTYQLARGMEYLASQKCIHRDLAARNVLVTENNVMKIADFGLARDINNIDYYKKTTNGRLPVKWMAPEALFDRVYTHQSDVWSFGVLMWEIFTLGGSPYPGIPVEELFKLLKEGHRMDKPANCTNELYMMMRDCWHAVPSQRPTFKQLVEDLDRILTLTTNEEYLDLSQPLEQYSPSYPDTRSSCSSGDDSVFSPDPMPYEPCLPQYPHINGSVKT

Regarding `C#Cc1cc(OC)c(-c2c(C3=CC[C@H](C(=O)N4CCC[C@H]4C)CC3)c3c(N)ncnc3n2C)cn1` [Example 1355], the results for the IC50 in test [1] and in test [2] (setting [3]) were less than 100 nM and no more than 100 nM, respectively.

For the compound `C#Cc1cc(C)c(-c2cn3ncnc(N)c3c2-c2ccc(Oc3nccc(C)n3)c(F)c2)cn1` [Example 1321], the values for the IC50 in test [1] and in test [2] (setting [3]) were less than 100 nM and no more than 100 nM, respectively.

As for `C=C(C)C(=O)Nc1ccc(-c2c(-c3ccc4c(c3)OC[C@H]4c3cccc(C)n3)c3c(N)ncnc3n2C)cc1` (single isomer, unassigned) [Example 920], the IC50 in test [1] is less than 100 nM; in test [2] (setting [3]), no more than 100 nM.

As for `C=C(C)C(=O)Nc1ccc(-c2nn3ccnc(N)c3c2-c2ccc(C(=O)N3CCCC3)cc2)cc1` [Example 862], the IC50 in test [1] and in test [2] (setting [3]) was 1000 to 100000 nM each time.

Consider `C=CC(=O)N1CC[C@@H](c2c(-c3ccc(Oc4cccc(C)n4)cc3)c3c(N)ncnc3n2C)[C@H]1C` (single isomer, unassigned) [Example 940], for which the IC50 in test [1] and in test [2] (setting [3]) was 1000 to 100000 nM throughout.

As for `C=C(C)C(=O)Nc1ccc(-c2c(C3=CC[C@H](C(=O)N4CCCC45COC5)CC3)c3c(N)ncnc3n2C)c(F)c1` [Example 1012], the IC50 was in the range of 250 to 1000 nM in test [1] and 100 to 250 nM in test [2] (setting [3]).

On to `C=C(C)C(=O)Nc1ccc(-c2c(C3=CC[C@H](C(=O)N4CCCC45CCC5)CC3)c3c(N)ncnc3n2C)cc1` [Example 999], for which the IC50 in test [1] is less than 100 nM; in test [2] (setting [3]), no more than 100 nM.

Regarding `C=CC(=O)N1CCC(c2c(-c3ccc(N4CCCC4)c(C(F)(F)F)c3)c3c(N)ncnc3n2C)C1` (centres unmarked) [Example 800], the IC50 in test [1] is less than 100 nM; in test [2] (setting [3]), no more than 100 nM.

`C#Cc1cc(C)c(-c2c(-c3ccc(C(=O)N4CCC[C@H]4C#C)cc3)c3c(N)ncnc3n2C)cn1` [Example 1185]: the IC50 was less than 100 nM in test [1] and no more than 100 nM in test [2] (setting [3]).

Consider `C#C[C@H]1CCCN1C(=O)[C@@H]1CC=C(c2c(-c3ccc(NC(=O)C(=C)C)cc3)n(C)c3ncnc(N)c23)CC1` (single isomer, unassigned) [Example 953], for which the values for the IC50 in test [1] and in test [2] (setting [3]) were less than 100 nM and 1000 to 100000 nM, respectively.

Take `C=C(C)C(=O)Nc1ccc(-c2c(C3=CC[C@@H](C(=O)N4CCCC4)CC3)c3c(N)ncnc3n2C)c(C)c1` (single isomer, unassigned) [Example 1035]: the IC50 in test [1] was less than 100 nM; in test [2] (setting [3]) it was no more than 100 nM.

`C#Cc1cc(C)c(-c2c(C3=CC[C@H](C(=O)N4CCC[C@H]4C)CC3)c3c(N)ncnc3n2C)c(F)n1` [Example 1319]: the IC50 was less than 100 nM in test [1] and no more than 100 nM in test [2] (setting [3]).

For `C#Cc1ncc(-c2c(-c3ccc(Oc4nccc(C)n4)c(F)c3)c3c(C)ncnc3n2C)c(C)n1` [Example 1170], the IC50 in test [1] is less than 100 nM; in test [2] (setting [3]) it was no more than 100 nM.

Regarding `C=C(C)C(=O)Nc1ccc(-c2c(-c3ccc(C(=O)N[C@H]4C[C@H](F)C4)c(OC)c3)c3c(N)ncnc3n2C)cc1` [Example 965], the IC50 is less than 100 nM in test [1] and no more than 100 nM in test [2] (setting [3]).

Turning to `Cn1c(-c2ccc(NC(=O)C3CN3)cc2)c(-c2ccc(C(=O)N3CCCC3)cc2)c2c(N)ncnc21` (centres unmarked) [Example 901], the half-inhibitory concentration (IC50) in test [1] and in test [2] (setting [3]) was 1000 to 100000 nM in each case.

As to `C=C(C)C(=O)Nc1cccc(-c2c(-c3ccc(C(=O)NCC4(F)COC4)cc3)c3c(N)ncnc3n2C)c1` [Example 1021], the IC50 was less than 100 nM in test [1] and no more than 100 nM in test [2] (setting [3]).

For `C#CCCCCn1c(-c2ccc(NC(=O)C(=C)C)cc2)c(-c2ccc(Oc3nccc(C)n3)c(F)c2)c2c(N)ncnc21` [Example 1007], the concentration for half-maximal inhibition (IC50) is less than 100 nM in test [1] and no more than 100 nM in test [2] (setting [3]).

Consider `C=C(C)C(=O)Nc1ccc(-c2c(-c3ccc(-c4ccccn4)s3)c3c(N)ncnc3n2C)cc1` [Example 1278], for which the IC50 in test [1] and in test [2] (setting [3]) was 250 to 1000 nM each time.

With `C=CC(=O)N1CC=C(c2ccc(-c3c(-c4ccc(Oc5cccc(C)n5)cc4)c4c(N)ncnc4n3C)cc2)C1` [Example 989], the IC50 lay within 1000 to 100000 nM in test [1] and 250 to 1000 nM in test [2] (setting [3]).

As for `C#Cc1cc(C)c(-c2c(C3=CC[C@@H](C(=O)N4CCC[C@@H]4C)CC3)c3c(N)ncnc3n2C)cn1` (single isomer, unassigned) [Example 1210], the values for the IC50 in test [1] and in test [2] (setting [3]) were less than 100 nM and no more than 100 nM, respectively.

As for `C=CC(=O)NC1CCC(c2c(-c3ccc(Oc4cccc(C)n4)cc3)c3c(N)ncnc3n2C)C1` (centres unmarked) [Example 810], the IC50 in test [1] was less than 100 nM; in test [2] (setting [3]) it was no more than 100 nM.

As for `C=C1CCc2ccc(-c3c(-c4ccc(Oc5nccc(C)n5)cc4)c4c(N)ncnc4n3C)cc2C1=O` [Example 1242], the half-maximal inhibitory concentration (IC50) in test [1] is 100 to 250 nM; in test [2] (setting [3]) it was 1000 to 100000 nM.

Regarding `C#Cc1cc(C)c(-c2c(C3=CC[C@H](C(=O)N4CCC[C@H]4C#N)CC3)c3c(N)ncnc3n2C)cn1` [Example 1251], the IC50 in test [1] was less than 100 nM; in test [2] (setting [3]), no more than 100 nM.

`COCC#Cc1ncc(-c2c(-c3ccc(Oc4nccc(C)n4)cc3)c3c(N)ncnc3n2C)c(C)n1` [Example 1232]: the IC50 in test [1] was less than 100 nM; in test [2] (setting [3]) it was no more than 100 nM.

In the case of `C=C(C)C(=O)Nc1ccc(-c2c(-c3ccc(Oc4cccc(C)n4)cc3)c3ncncc3n2C)cc1` [Example 820], the values for the IC50 in test [1] and in test [2] (setting [3]) were less than 100 nM and no more than 100 nM, respectively.

Consider `C=C(C)C(=O)Nc1ccc(-c2c(C3=CC[C@H](C(=O)N4CCCC4)CC3)c3c(N)ncnc3n2C)c(Cl)c1` [Example 1017], for which the results for the IC50 in test [1] and in test [2] (setting [3]) were less than 100 nM and no more than 100 nM, respectively.

Take `C#Cc1cc(CO)c(-c2c(-c3ccc(Oc4nccc(C)n4)c(F)c3)c3c(N)ncnc3n2C)cn1` [Example 1228]: the IC50 in test [1] is less than 100 nM; in test [2] (setting [3]), no more than 100 nM.

Turning to `C#Cc1cc(C(F)F)c(-c2c(-c3ccc(Oc4nccc(C)n4)c(F)c3)c3c(N)ncnc3n2C)cn1` [Example 1253], the IC50 in test [1] is less than 100 nM; in test [2] (setting [3]), no more than 100 nM.

For `C=CC(=C)Nc1ccc(-c2c(-c3cnn(C)c3)c3c(N)ncnc3n2C)c(C)c1` [Example 1132], the IC50 in test [1] lay within 1000 to 100000 nM; in test [2] (setting [3]), 250 to 1000 nM.

For `C=C1CCN(c2ccc(-c3c(-c4ccc(Oc5nccc(C)n5)cc4)c4c(N)ncnc4n3C)cc2)C1=O` [Example 1060], the IC50 in test [1] and in test [2] (setting [3]) was 1000 to 100000 nM each time.

Turning to `CC1=CCN(c2ccc(-c3c(-c4ccc(Oc5nccc(C)n5)cc4)c4c(N)ncnc4n3C)cn2)C1=O` [Example 1078], the IC50 in test [1] is less than 100 nM; in test [2] (setting [3]), no more than 100 nM.

Consider `C=C(C)C(=O)Nc1ccc(-c2c(C3=CC[C@](C)(C(=O)N4CCCC4)CC3)c3c(N)ncnc3n2C)cc1` [Example 1026], for which the IC50 in test [1] and in test [2] (SNU-16 cells) was 1000 to 100000 nM each time.

Take `C=C(C)C(=O)Nc1ccc(-c2c(-c3ccc4ncnn4c3)c3c(N)ncnc3n2C)cc1` [Example 1343]: the IC50 in test [1] and in test [2] (setting [3]) was 1000 to 100000 nM in each case.

Regarding `C=C(C)C(=O)Nc1ccc(-c2c(-c3ccc(Oc4nccc(C)n4)c(F)c3)c3c(O)ncnc3n2C)cc1` [Example 1057], the IC50 in test [1] is less than 100 nM; in test [2] (setting [3]), no more than 100 nM.

In the case of `C=C(C)C(=O)Nc1cc(C)c(-c2c(C3=CC[C@H](C(=O)N4CCCC4)CC3)c3c(N)ncnc3n2C)c(F)c1` [Example 1482], the IC50 in test [1] was less than 100 nM; in test [2] (setting [3]), no more than 100 nM.

Turning to `C=C(C)C(=O)Nc1ccc(-c2c(-c3cnn(-c4ccccc4)c3)c3c(N)ncnc3n2C)cc1` [Example 1281], the IC50 in test [1] was 1000 to 100000 nM; in test [2] (setting [3]), 250 to 1000 nM.

Take `C#Cc1cc(C)c(-c2c(C3=CC[C@H](C(=O)N4CCC[C@H]4C#N)CC3)c3c(C)ncnc3n2C)c(C)n1` (atropisomer, axis not shown) [Example 1463]: the IC50 is 100 to 250 nM in test [1] and no more than 100 nM in test [2] (setting [3]).

On to `C=C1C[C@@H](C)N(c2ccc(-c3c(-c4ccc(Oc5nccc(C)n5)cc4)c4c(N)ncnc4n3C)cc2)C1=O` [Example 1113], for which the values for the IC50 in test [1] and in test [2] (setting [3]) were less than 100 nM and no more than 100 nM, respectively.

As to `C=CC(=O)N1CC[C@H](c2c(C3=CC[C@H](C(=O)N4CCCC4)CC3)c3c(N)ncnc3n2C)C1` (single isomer, unassigned) [Example 873], the IC50 in test [1] lay within 1000 to 100000 nM; in test [2] (setting [3]), 250 to 1000 nM.

Turning to `C=C(C)C(=O)Nc1ccc(-c2c(C3=C(F)C[C@@H](C(=O)N4CCCC4)CC3)c3c(N)ncnc3n2C)cc1` (single isomer, unassigned) [Example 883], the IC50 in test [1] and in test [2] (setting [3]) was 1000 to 100000 nM throughout.

On to `C#Cc1ccc(-c2c(C3=CC[C@H](C(=O)N4CCCC45COC5)CC3)c3c(N)ncnc3n2C)c(C)n1` [Example 1304], for which the IC50 in test [1] and in test [2] (setting [3]) was 250 to 1000 nM in each case.

As to `C=C(C)C(=O)Nc1ccc(-c2c(-c3ccc4c(c3)CCOC4)c3c(N)ncnc3n2C)cc1` [Example 1292], the IC50 in test [1] and in test [2] (setting [3]) was 1000 to 100000 nM in each case.

Take `C=CC(=O)N1CCc2ccc(-c3c(-c4ccc(Oc5nccc(C)n5)cc4)c4c(N)ncnc4n3C)cc2C1` [Example 916]: the IC50 was in the range of 1000 to 100000 nM in test [1] and 100 to 250 nM in test [2] (setting [3]).

As to `C=C(C)C(=O)Nc1cc(C)c(-c2c(C3=CC[C@@H](C(=O)N4CCCC4)CC3)c3c(N)ncnc3n2C)c(C)c1` (single isomer, unassigned) [Example 1484], the IC50 in test [1] and in test [2] (setting [3]) was 1000 to 100000 nM in each case.

In the case of `CC1=C[C@H](C)N(c2ccc(-c3c(-c4ccc(Oc5nccc(C)n5)cc4)c4c(N)ncnc4n3C)cc2)C1=O` [Example 1118], the IC50 was less than 100 nM in test [1] and no more than 100 nM in test [2] (setting [3]).

`C#Cc1cc2c(cn1)-c1c(-c3ccc(Oc4nccc(C)n4)c(F)c3)c3c(N)ncnc3n1CCO2` [Example 1440]: the IC50 in test [1] was less than 100 nM; in test [2] (setting [3]), no more than 100 nM.

For the compound `C=CC(=O)N1C[C@H](c2c(-c3ccc(Oc4cccc(C)n4)cc3)c3c(N)ncnc3n2C)[C@@H](O)C1` [Example 806], the IC50 in test [1] is less than 100 nM; in test [2] (setting [3]), 100 to 250 nM.

Consider `C#Cc1ncc(-c2c(-c3ccc(C(=O)NCC(C)C)c(F)c3)c3c(N)ncnc3n2C)c(C)c1F` [Example 1261], for which the IC50 is less than 100 nM in test [1] and no more than 100 nM in test [2] (setting [3]).

Regarding `C#Cc1cc2ccc(-c3c(-c4ccc(Oc5nccc(C)n5)c(F)c4)c4c(N)ncnc4n3C)cc2cn1` [Example 1404], the IC50 in test [1] and in test [2] (setting [3]) was 250 to 1000 nM each time.
